# Measurements: BindingDB's records for patent US20240216357 (Sichuan Huiyu Pharmaceutical, 2024)
# Target: Lysine-specific histone demethylase 1A (Homo sapiens, UniProt O60341)
# Test: LSD1 Enzyme Activity Assay
compound,measurement,value
"Cc1ccc(-c2c(-c3ccc(C#N)cc3)nc3c(N4CCC[C@@H](N)C4)nccn23)cc1 [US20240216357, Example 5]",IC50,28.5 nM
"COc1ccc(Nc2c(O)cc(N3CCC(N)CC3)nc2-c2ccc(C#N)c(F)c2)cc1F [US20240216357, Example 64]",IC50,119 nM
"COc1cc(N2CCC(N)CC2)nc(-c2ccc(C#N)c(F)c2)c1-c1ccc(Cl)c(O)c1 [US20240216357, Example 98]",IC50,0.7 nM
"COc1ccc(-c2nc(N3CCC(N)CC3)cc(C#N)c2-c2ccc(C#N)c(F)c2)cc1O [US20240216357, Example 274]",IC50,23.8 nM
"COc1ccc(-c2c(-c3ccc(C#N)c(F)c3)nc(N3CCC(N)CC3)c3c2OCC(=O)N3)cc1O [US20240216357, Example 280]",IC50,0.272 nM
"Cc1noc2cc(-c3cc(C#N)c(N4CCC(N)CC4)nc3-c3ccc(C#N)c(F)c3)c(F)cc12 [US20240216357, Example 284]",IC50,633 nM
"COc1ccc(-c2c(-c3ccc(C#N)c(F)c3)nc(N3CCC(N)CC3)c3c2cnn3C)cc1O [US20240216357, Example 285]",IC50,0.93 nM
